The source of these data is patent US9382254B2, “Compounds and pharmaceutical compositions thereof for the treatment of cystic fibrosis” (Galapagos NV, priority 2013, dated 2016).

Where only a bound is given, the exact number is not on record here.

Common to all, as to format: cell-based
For assay [1], the target named is T1, CFTR-G178R (Homo sapiens, UniProt P13569, G178R).
T1 construct: expressed in transfected cells
The assay is described as follows: YFP-halide influx assay for the CFTR-G178R. The source says: (§1) The YFP halide influx assay measures the functionality of the cystic fibrosis Transmembrane Conductance regulator (CFTR) channels. The assay is used to evaluate the capacity of compounds to increase the channel opening of existing mutant CFTR channels in the membrane. It makes use of the observation that the yellow fluorescent protein (YFP) variant YFP H148Q, I152L, […] has its fluorescence substantially quenched by halide ions like Cl^− and I^−. (Galietta, Haggie, & Verkman, 2001)
(§2) For this purpose, HEK293-cells are seeded in 96 well plates. During seeding, the cells are reverse-transfected with plasmid vectors that direct the expression of the CFTR G551D mutant and of the YFP reporter. Cells are incubated at 37° C., 5% CO2 for 24 hours so as to allow for sufficient expression of the CFTR protein.
(§3) The I^−-induced quenching of fluorescence is recorded immediately after injection of I^− for 7 seconds. The capacity of a compound to increase the channel opening is directly correlated with the decrease in fluorescence, and is expressed as (1-(fluorescence after 7 seconds (F)/fluorescence before injection (F0))) and an EC50 can be derived from a (1-F/F0) vs compound concentration plot.
(§4) Similar YHA assays were developed for other channel gating defective or channel conductance defective CFTR mutants to determine effect of compound on channel activity. Examples of mutants are G178R, G1349D, S549N, R117H, R334W. This assay is also used for additional class I CFTR mutants, including G542X, W1282X; class II mutants including N1303K, and for class III mutants including S1251N.

The target in assay [2] is T2, CFTR G551D mutant (Homo sapiens, UniProt P13569, G551D).
T2 construct: expressed in transfected cells; host or cells: HEK293 (reverse transfection with plasmid)
T2 sequence (P13569 whole entry G551D): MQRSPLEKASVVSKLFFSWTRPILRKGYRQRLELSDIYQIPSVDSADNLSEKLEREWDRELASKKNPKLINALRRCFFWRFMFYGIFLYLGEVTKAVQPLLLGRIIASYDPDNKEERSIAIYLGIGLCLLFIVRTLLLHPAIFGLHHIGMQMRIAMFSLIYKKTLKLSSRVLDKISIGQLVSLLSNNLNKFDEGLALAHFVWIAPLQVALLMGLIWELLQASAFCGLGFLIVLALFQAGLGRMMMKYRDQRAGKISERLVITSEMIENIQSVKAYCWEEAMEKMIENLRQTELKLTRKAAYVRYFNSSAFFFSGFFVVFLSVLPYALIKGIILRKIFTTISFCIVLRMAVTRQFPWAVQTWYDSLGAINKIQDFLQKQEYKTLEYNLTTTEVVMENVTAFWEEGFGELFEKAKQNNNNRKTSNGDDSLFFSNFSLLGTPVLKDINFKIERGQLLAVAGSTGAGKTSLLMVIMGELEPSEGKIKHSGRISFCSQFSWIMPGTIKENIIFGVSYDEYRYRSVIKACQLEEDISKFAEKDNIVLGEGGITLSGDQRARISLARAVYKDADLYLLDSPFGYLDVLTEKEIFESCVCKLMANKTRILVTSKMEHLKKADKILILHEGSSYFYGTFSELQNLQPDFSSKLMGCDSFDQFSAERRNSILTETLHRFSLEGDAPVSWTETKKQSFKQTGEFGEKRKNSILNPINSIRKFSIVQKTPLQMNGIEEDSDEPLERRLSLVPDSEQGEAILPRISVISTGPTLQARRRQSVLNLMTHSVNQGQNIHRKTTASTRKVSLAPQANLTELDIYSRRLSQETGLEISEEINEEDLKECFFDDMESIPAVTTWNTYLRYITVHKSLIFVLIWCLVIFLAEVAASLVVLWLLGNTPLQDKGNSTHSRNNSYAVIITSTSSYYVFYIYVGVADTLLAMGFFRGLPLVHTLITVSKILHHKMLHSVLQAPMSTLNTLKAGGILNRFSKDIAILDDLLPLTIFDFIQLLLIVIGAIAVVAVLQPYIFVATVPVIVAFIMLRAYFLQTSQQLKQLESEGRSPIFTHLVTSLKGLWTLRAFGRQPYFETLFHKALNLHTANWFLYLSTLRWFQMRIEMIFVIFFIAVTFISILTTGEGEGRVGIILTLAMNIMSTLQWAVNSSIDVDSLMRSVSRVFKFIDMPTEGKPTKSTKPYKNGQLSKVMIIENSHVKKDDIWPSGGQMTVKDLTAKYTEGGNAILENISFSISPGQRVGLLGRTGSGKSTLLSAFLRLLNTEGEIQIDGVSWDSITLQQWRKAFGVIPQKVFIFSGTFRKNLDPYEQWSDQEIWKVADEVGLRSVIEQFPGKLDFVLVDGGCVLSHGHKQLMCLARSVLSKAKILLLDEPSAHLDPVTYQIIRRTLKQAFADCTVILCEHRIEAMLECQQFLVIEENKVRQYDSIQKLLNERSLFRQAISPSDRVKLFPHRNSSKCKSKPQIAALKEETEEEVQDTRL
The assay is described as follows: YFP-halide influx assay for the CFTR-G551D mutation. The conditions noted are these: HEK293 cells, forskolin 10.67 μM. In a few lines:
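Channel opening potentiation measured as 1−F/F0, where F is YFP fluorescence 7 s after iodide injection and F0 before; EC50 taken from concentration plot. Cells: HEK293 transiently expressing CFTR G551D plus halide-sensitive YFP (H148Q, I152L, F47L), 24 h at 37 °C, 5% CO2.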

Assay [3] concerns the target T3, CFTR-R117H (Homo sapiens, UniProt P13569, R117H).
T3 construct: expressed in transfected cells
The assay is described as follows: YFP-halide influx assay for the CFTR-R117H.
Source text: as §1, §2, §3, §4

Assay [4] addresses T4, CFTR-G1349D (Homo sapiens, UniProt P13569, G1349D).
T4 construct: expressed in transfected cells
The assay can be described thus: YFP-halide influx assay for the CFTR-G1349D.
Source text: as §1, §2, §3, §4

The target in assay [5] is T5, CFTR ΔF508 mutant (Homo sapiens, UniProt P13569, DEL508-508).
T5 construct: expressed in transfected cells; host or cells: CFBE41o- (adenoviral transduction)
T5 sequence (P13569 with tags, fused parts or gaps DEL508-508): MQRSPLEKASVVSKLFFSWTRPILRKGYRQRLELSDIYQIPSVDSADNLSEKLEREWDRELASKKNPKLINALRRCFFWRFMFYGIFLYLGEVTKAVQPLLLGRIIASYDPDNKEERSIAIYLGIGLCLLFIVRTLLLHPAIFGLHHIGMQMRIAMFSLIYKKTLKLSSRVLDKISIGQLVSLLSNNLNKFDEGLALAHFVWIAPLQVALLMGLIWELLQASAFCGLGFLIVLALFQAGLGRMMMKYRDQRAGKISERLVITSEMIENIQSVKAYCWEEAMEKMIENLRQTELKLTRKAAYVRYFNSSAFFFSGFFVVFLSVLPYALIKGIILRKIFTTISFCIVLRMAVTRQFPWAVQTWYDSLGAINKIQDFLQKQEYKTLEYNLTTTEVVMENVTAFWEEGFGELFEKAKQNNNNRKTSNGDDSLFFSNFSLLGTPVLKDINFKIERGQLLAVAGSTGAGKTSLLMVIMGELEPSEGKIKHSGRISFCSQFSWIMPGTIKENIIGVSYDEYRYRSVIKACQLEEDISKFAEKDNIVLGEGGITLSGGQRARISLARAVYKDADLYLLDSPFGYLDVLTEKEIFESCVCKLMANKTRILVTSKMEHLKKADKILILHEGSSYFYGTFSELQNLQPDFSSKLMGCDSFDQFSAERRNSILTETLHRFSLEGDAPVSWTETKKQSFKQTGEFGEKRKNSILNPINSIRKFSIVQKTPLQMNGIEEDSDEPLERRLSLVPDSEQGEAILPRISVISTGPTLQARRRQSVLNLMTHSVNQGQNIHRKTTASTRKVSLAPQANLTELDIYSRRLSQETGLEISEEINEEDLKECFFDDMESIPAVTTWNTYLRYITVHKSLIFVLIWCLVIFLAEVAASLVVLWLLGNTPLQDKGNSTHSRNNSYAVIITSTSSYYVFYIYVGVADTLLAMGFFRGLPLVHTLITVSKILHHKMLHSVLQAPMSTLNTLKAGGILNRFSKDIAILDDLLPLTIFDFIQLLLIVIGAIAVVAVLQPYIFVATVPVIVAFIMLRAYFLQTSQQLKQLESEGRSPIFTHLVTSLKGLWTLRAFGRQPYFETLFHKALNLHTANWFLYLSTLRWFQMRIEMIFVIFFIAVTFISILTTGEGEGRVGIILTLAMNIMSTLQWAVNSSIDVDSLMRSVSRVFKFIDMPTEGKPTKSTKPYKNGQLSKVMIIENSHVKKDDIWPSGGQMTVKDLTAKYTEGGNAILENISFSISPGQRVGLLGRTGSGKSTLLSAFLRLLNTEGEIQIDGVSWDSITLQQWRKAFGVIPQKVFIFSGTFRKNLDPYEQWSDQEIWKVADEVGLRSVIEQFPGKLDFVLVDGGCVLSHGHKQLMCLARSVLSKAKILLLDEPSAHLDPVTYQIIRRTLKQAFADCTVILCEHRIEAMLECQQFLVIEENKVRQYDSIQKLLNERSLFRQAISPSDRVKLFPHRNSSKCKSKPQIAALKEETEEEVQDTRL
The assay can be described thus: YFP-halide influx assay for the CFTR-ΔF508 mutation (384 well, FDSS/μCell). The conditions noted are these: CFBE41o- cells, CFTR-ΔF508, 1×D-PBS, fluorescence after 36 seconds. In a few lines:
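Potentiator read-out as 1−F/F0, F taken 36 s after iodide addition, EC50 fitted against compound concentration. Cells: CFBE41o- expressing ΔF508 CFTR plus halide-sensitive YFP via adenovirus, rescued by 27 °C for 24 h or 24 h modulator at 37 °C.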

Assay [6] concerns the target T6, CFTR-S549N (Homo sapiens, UniProt P13569, S549N).
T6 construct: expressed in transfected cells
The assay can be described thus: YFP-halide influx assay for the CFTR-S549N.
Source text: as §1, §2, §3, §4

T4 sequence (P13569 whole entry G1349D): as the sequence (P13569 whole entry G551D) above, with D551G, G1349D counted along it
T1 sequence (P13569 whole entry G178R): as the sequence (P13569 whole entry G551D) above, with G178R, D551G counted along it
T3 sequence (P13569 whole entry R117H): as the sequence (P13569 whole entry G551D) above, with R117H, D551G counted along it
T6 sequence (P13569 whole entry S549N): as the sequence (P13569 whole entry G551D) above, with S549N, D551G counted along it

Consider `CC(O)C(=O)Nc1sc(S(=O)(=O)c2ccc(F)cc2Cl)cc1C(N)=O` (stereo not drawn) [Compound 329, 5-(2-chloro-4-fluoro-phenyl) sulfonyl-2-(2-hydroxypropanoylamino) thiophene-3-carboxamide], for which the EC50 (as a rule, the concentration needed to bring the measured effect to its halfway point) in assay [1] turned out to be 1680 nM; in assay [2], 1400 nM; in assay [3] it was 851 nM; in assay [4], 2050 nM; in assay [5], 23.2 nM; in assay [6] it was 2690 nM.
For the compound `CC(C)(O)C(=O)Nc1sc(S(=O)(=O)c2ccsc2C(F)(F)F)cc1C(N)=O` [Compound 425, 2-[(2-hydroxy-2-methyl-propanoyl)amino]-5-[[2-(trifluoromethyl)-3-thienyl]sulfonyl] thiophene-3-carboxamide], the EC50 in assay [1] is 1270 nM; in assay [2], 762 nM; in assay [3], 144 nM; in assay [4], 364 nM; in assay [5] it was 6.9 nM; in assay [6], 715 nM.
Take `C[C@H](O)C(=O)Nc1sc(S(=O)(=O)c2ccc(OC(F)(F)F)cc2)cc1C(N)=O` [Compound 331, 2-[[(2S)-2-hydroxypropanoyl]amino]-5-[4-(trifluoromethoxy)phenyl] sulfonyl-thiophene-3-carboxamide]: the concentration for a half-maximal effect (EC50) in assay [1] was 67.7 nM; in assay [2], 562 nM; in assay [3], 95 nM; in assay [4], 117 nM; in assay [5], 8 nM; in assay [6], 522 nM.
As for `CC(C)(O)C(=O)Nc1sc(S(=O)(=O)c2ccc(C#N)cc2C(F)(F)F)cc1C(N)=O` [Compound 407, 5-[4-cyano-2-(trifluoromethyl)phenyl] sulfonyl-2-[(2-hydroxy-2-methyl-propanoyl)amino] thiophene-3-carboxamide], the half-maximal effective concentration (EC50) in assay [1] turned out to be 1530 nM; in assay [2], 3330 nM; in assay [3], 262 nM; in assay [4] it was 3330 nM; in assay [5], 50.6 nM; in assay [6], 2860 nM.
In the case of `CC(C)(O)C(=O)Nc1sc(S(=O)(=O)c2ccc(C(F)(F)F)cc2F)cc1C(N)=O` [Compound 376, 5-[2-fluoro-4-(trifluoromethyl)phenyl] sulfonyl-2-[(2-hydroxy-2-methyl-propanoyl)amino] thiophene-3-carboxamide], the EC50 in assay [1] is 86.9 nM; in assay [2], 522 nM; in assay [3] it was 138 nM; in assay [4] it was 173 nM; in assay [5], 8.07 nM; in assay [6], 251 nM.
On to `CC(C)(O)C(=O)Nc1sc(S(=O)(=O)c2c(F)cc(F)cc2OC(F)F)cc1C(N)=O` [Compound 405, 5-[2-(difluoromethoxy)-4,6-difluoro-phenyl]sulfonyl-2-[(2-hydroxy-2-methyl-propanoyl)amino] thiophene-3-carboxamide], for which the concentration for a half-maximal effect (EC50) in assay [1] is over 1000 nM; in assay [2] it was 4520 nM; in assay [3], 155 nM; in assay [4], 3330 nM; in assay [5], 19.6 nM; in assay [6] it was 1370 nM.
In the case of `COc1cc(S(=O)(=O)c2cc(C(N)=O)c(NC(=O)C(C)(C)O)s2)c(OC(F)F)cn1` [Compound 418, 5-[[5-(difluoromethoxy)-2-methoxy-4-pyridyl]sulfonyl]-2-[(2-hydroxy-2-methyl-propanoyl)amino] thiophene-3-carboxamide], the concentration giving a half-maximal response (EC50) in assay [1] was 14.4 nM; in assay [2], 390 nM; in assay [3], 192 nM; in assay [4], 18.4 nM; in assay [5] it was 8.18 nM; in assay [6], 184 nM.
`CC(C)(O)C(=O)Nc1sc(S(=O)(=O)c2ccc(OC(F)(F)F)cc2F)cc1C(N)=O` [Compound 375, 5-[2-fluoro-4-(trifluoromethoxy)phenyl] sulfonyl-2-[(2-hydroxy-2-methyl-propanoyl)amino] thiophene-3-carboxamide]: the half-maximal effective concentration (EC50) in assay [1] turned out to be 93.4 nM; in assay [2] it was 681 nM; in assay [3], 253 nM; in assay [4] it was 146 nM; in assay [5], 7.53 nM; in assay [6], 199 nM.
Turning to `CC(CO)C(=O)Nc1sc(S(=O)(=O)c2ccc(F)cc2Cl)cc1C(N)=O` (stereo not drawn) [Compound 360, 5-(2-chloro-4-fluoro-phenyl)sulfonyl-2-[(3-hydroxy-2-methyl-propanoyl)amino] thiophene-3-carboxamide], the EC50 amounted to 123 nM in assay [1]; 635 nM in assay [2]; 49.3 nM in assay [3]; 223 nM in assay [4]; 9.55 nM in assay [5]; 188 nM in assay [6].
For `CC(C)(O)C(=O)Nc1sc(S(=O)(=O)c2ccc(C(F)(F)F)c(F)c2)cc1C(N)=O` [Compound 422, 5-[3-fluoro-4-(trifluoromethyl)phenyl]sulfonyl-2-[(2-hydroxy-2-methyl-propanoyl)amino] thiophene-3-carboxamide], the EC50 in assay [1] was determined as 64.4 nM; in assay [2], 872 nM; in assay [3], 448 nM; in assay [4], 212 nM; in assay [5] it was 15.3 nM; in assay [6], 542 nM.
With `CC(C)(O)C(=O)Nc1sc(S(=O)(=O)c2nc(C(C)(C)C)ccc2C(F)(F)F)cc1C(N)=O` [Compound 426, 5-[[6-tert-butyl-3-(trifluoromethyl)-2-pyridyl]sulfonyl]-2-[(2-hydroxy-2-methyl-propanoyl)amino] thiophene-3-carboxamide], the EC50 in assay [1] was found to be 9.85 nM; in assay [2] it was 61.3 nM; in assay [3], 83.1 nM; in assay [4], 6.06 nM; in assay [5] it was 2.58 nM; in assay [6], 26.2 nM.
`COc1cc(C#N)cc(S(=O)(=O)c2cc(C(N)=O)c(NC(=O)C(C)(C)O)s2)c1OC(F)F` [Compound 419, 5-[5-cyano-2-(difluoromethoxy)-3-methoxy-phenyl]sulfonyl-2-[(2-hydroxy-2-methyl-propanoyl)amino] thiophene-3-carboxamide]: the EC50 in assay [1] amounted to 250 nM; in assay [2], 678 nM; in assay [3], 465 nM; in assay [4], 617 nM; in assay [5] it was 26.6 nM; in assay [6] it was 621 nM.
Take `CC(C)(O)C(=O)Nc1sc(S(=O)(=O)c2cc(F)c(F)cc2OC(F)F)cc1C(N)=O` [Compound 404, 5-[2-(difluoromethoxy)-4,5-difluoro-phenyl] sulfonyl-2-[(2-hydroxy-2-methyl-propanoyl)amino] thiophene-3-carboxamide]: the EC50 stood at 126 nM in assay [1]; 553 nM in assay [2]; 283 nM in assay [3]; 1490 nM in assay [4]; 14.3 nM in assay [5]; 1810 nM in assay [6].
Take `CC(C)(O)C(=O)Nc1sc(S(=O)(=O)c2cc(F)ccc2Cl)cc1C(N)=O` [Compound 337, 5-(2-chloro-5-fluoro-phenyl)sulfonyl-2-[(2-hydroxy-2-methyl-propanoyl)amino] thiophene-3-carboxamide]: the concentration for a half-maximal effect (EC50) in assay [1] was determined as 27.2 nM; in assay [2], 879 nM; in assay [3], 56.3 nM; in assay [4], 48.7 nM; in assay [5] it was 5.5 nM; in assay [6], 107 nM.
For `CC(C)(O)C(=O)Nc1sc(S(=O)(=O)c2cc(F)ccc2Br)cc1C(N)=O` [Compound 323, 5-(2-Bromo-5-fluoro-benzenesulfonyl)-2-(2-hydroxy-2-methyl-propionylamino)-thiophene-3-carboxylic acid amide], the 50% effective concentration (EC50) amounted to 189 nM in assay [1]; 227 nM in assay [2]; 342 nM in assay [3]; 459 nM in assay [4]; 9.4 nM in assay [5]; 1510 nM in assay [6].
In the case of `COc1cc(S(=O)(=O)c2cc(C(N)=O)c(NC(=O)C(C)(C)O)s2)c(OC(F)F)cc1F` [Compound 402, 5-[2-(difluoromethoxy)-4-fluoro-5-methoxy-phenyl] sulfonyl-2-[(2-hydroxy-2-methyl-propanoyl)amino] thiophene-3-carboxamide], the EC50 in assay [1] was 248 nM; in assay [2], 1400 nM; in assay [3], 273 nM; in assay [4], 3330 nM; in assay [5], 25.6 nM; in assay [6], 1020 nM.
